We go through one compound from patent US20030078278A1, “Spiropiperidine compounds as ligands for ORL-1 receptor” (Pfizer Inc., priority 2001, published 2003).

The structures appear in SMILES notation.

For one test, the target named is T1, human ORL1 receptor (Homo sapiens, UniProt P41146).
T1 construct: expressed in transfected cells; host or cells: HEK-293
Put plainly: ORL1-Receptor Binding Assay ([3H]nociceptin, SPA). The protocol: ORL1-Receptor Binding Assay:
The human ORL1 receptor transfected HEK-293 cell membranes were incubated for 45 min at 22° C. with 0.4 nM [^3H]nociceptin, 1.0 mg of wheat germ agglutinin-coated SPA beads and various concentrations of test compounds in a final volume of 200 μl of 50 mM HEPES buffer pH 7.4 containing 10 mM MgCl2 and 1 mM EDTA. Non-specific binding was determined by the addition of 1 μM unlabeled nociceptin. After the reaction, the assay plate was centrifuged at 1,000 rpm for 1 min and then the radioactivity was measured by a Liquid Scintillation Counter.
(§1) Each percent […] binding thus obtained is graphed as a function of compound concentration. A sigmoidal curve is used to determine 50% bindings (i.e., IC50 values).

In another test the target is T2, human Mu receptor (Homo sapiens, UniProt P35372).
T2 construct: expressed in transfected cells; host or cells: CHO-K1
The test is described as follows: μ-Receptor Binding Assay ([3H]DAMGO, SPA). The conditions noted are these: human Mu receptor transfected CHO-K1 cell membranes, 1.0 nM [3H]DAMGO. The protocol: μ-Receptor Binding Assay:
The human Mu receptor transfected CHO-K1 cell membranes were incubated for 45 min at 22° C. with 1.0 nM [^3H]DAMGO, 1.0 mg of wheat germ agglutinin-coated SPA beads and various concentrations of test compounds in a final volume of 200 μl of 50 mM Tris-HCl buffer pH 7.4 containing 5 mM MgCl2. Non-specific binding was determined by the addition of 1 μM unlabeled DAMGO. After the reaction, the assay plate was centrifuged at 1,000 rpm for 1 min and then the radioactivity was measured by a Liquid Scintillation Counter.
as §1

Broadly, the IC50 is the midpoint of a concentration-inhibition curve. A high value points to weaker potency in that assay.

T1 sequence (P41146 whole entry): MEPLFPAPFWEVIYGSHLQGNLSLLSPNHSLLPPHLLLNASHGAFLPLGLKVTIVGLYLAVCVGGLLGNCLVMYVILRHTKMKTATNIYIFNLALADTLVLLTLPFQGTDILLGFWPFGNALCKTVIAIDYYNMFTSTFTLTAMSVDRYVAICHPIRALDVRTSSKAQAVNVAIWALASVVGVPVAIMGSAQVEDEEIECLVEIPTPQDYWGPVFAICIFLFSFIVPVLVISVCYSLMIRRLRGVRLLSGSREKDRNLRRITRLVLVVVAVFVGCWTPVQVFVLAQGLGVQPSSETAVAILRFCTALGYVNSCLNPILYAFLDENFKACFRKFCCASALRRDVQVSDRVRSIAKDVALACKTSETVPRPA
T2 sequence (P35372 whole entry): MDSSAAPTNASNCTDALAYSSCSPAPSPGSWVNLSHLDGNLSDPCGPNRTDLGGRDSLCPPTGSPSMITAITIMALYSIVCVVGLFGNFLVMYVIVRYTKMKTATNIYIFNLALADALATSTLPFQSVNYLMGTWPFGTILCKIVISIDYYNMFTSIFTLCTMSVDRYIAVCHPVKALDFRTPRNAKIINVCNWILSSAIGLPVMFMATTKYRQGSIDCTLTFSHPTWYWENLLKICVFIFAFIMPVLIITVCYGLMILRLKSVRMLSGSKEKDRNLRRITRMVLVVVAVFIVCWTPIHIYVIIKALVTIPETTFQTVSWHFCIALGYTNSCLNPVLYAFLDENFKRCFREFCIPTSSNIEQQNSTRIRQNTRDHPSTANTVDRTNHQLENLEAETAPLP

In the case of `O=c1oc2ccccc2n1CCCN1CCC2(CCc3ccccc32)CC1` [Example 9, 2,3-Dihydro-1′-[3-(2-oxo-1,3-benzoxazol-3(2H)-yl)propyl]spiro[1H-indene-1,4′-piperidine]], the IC50 at human ORL1 receptor stood at 89 nM; on human Mu receptor, 871 nM. For the same compound, the “selectivity of binding affinity, ORL-1 receptor versus mu-receptor (in words)” value at human ORL1 receptor (comparison of ORL1 and mu binding assays) was “selective affinity for ORL-1 receptor over mu-receptor”.
